Experimental data: the supplement of paper PMC10307832

Legend:
Assay in all cases: relative viability (nuclei count vs DMSO), 5 days (fraction); higher = more cells survive
[1] = compound: CN1C=C(C2=CC=CC=C21)/C=C\3/C4=C(C=CC=N4)NC3=O + CS(=O)(=O)N1CCN(Cc2cc3nc(-c4cccc5[nH]ncc45)nc(N4CCOCC4)c3s2)CC1 [Pictilisib] (partner 1 µM)
In short: (§1)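 Nuclei were stained with Hoechst during a one-step fixation (final 0.05% Triton X-100, 1% formaldehyde, 1 ug/ml Hoechst) carried out 5 days after dosing, then counted on 4× images. The cells, lung cancer lines in 1536-well plates, had been dosed by pin tool the day after seeding with one drug alone or a fixed anchor-drug dose plus five library-drug doses (not always all listed) in √10 steps. Relative viability is the nuclei count in treated wells divided by that in vehicle wells, and each value is the median of duplicate plates.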

[2] = compound: CN1C=C(C2=CC=CC=C21)/C=C\3/C4=C(C=CC=N4)NC3=O + C[C@@H](Oc1cc(-c2cnn(C3CCNCC3)c2)cnc1N)c1c(Cl)ccc(F)c1Cl [Crizotinib] (partner 1 µM)
In short: as §1

[3] = compound: CC(=O)Nc1cccc(-n2c(=O)n(C3CC3)c(=O)c3c(Nc4ccc(I)cc4F)n(C)c(=O)c(C)c32)c1 [Trametinib] + CS(=O)(=O)CCNCc1ccc(-c2ccc3ncnc(Nc4ccc(OCc5cccc(F)c5)c(Cl)c4)c3c2)o1 [Lapatinib] (partner 2 µM)
In short: as §1

[4] = compound: CN1C=C(C2=CC=CC=C21)/C=C\3/C4=C(C=CC=N4)NC3=O + O=C(CCCCCCC(=O)Nc1ccccc1)NO [Vorinostat] (partner 1 µM)
In short: as §1

Row | Cell Line | relative viability ([1]; first compound 0.02 µM) | relative viability ([1]; first compound 0.06325 µM) | relative viability ([1]; first compound 0.2 µM) | relative viability ([1]; first compound 0.6325 µM) | relative viability ([1]; first compound 2 µM) | relative viability ([2]; first compound 0.02 µM) | relative viability ([2]; first compound 0.06325 µM) | relative viability ([2]; first compound 0.2 µM) | relative viability ([2]; first compound 0.6325 µM) | relative viability ([2]; first compound 2 µM) | relative viability ([3]; first compound 0.0025 µM) | relative viability ([3]; first compound 0.007906 µM) | relative viability ([3]; first compound 0.025 µM) | relative viability ([3]; first compound 0.07906 µM) | relative viability ([3]; first compound 0.25 µM) | relative viability ([4]; first compound 0.02 µM) | relative viability ([4]; first compound 0.2 µM) | relative viability ([4]; first compound 0.6325 µM) | relative viability ([4]; first compound 2 µM) | relative viability ([4]; first compound 0.06325 µM)
1 | H3255 | 0.41 | 0.453 | 0.395 | 0.501 | 0.475 | 0.91 | 0.935 | 0.874 | 0.888 | 0.889 | 0.246 | 0.188 | 0.269 | 0.201 | 0.236 | 1.03 | 0.876 | 0.749 | 0.774 | –
2 | HARA | 0.55 | 0.391 | 0.407 | 0.254 | 0.379 | 0.975 | 0.958 | 0.933 | 1.02 | 1.09 | 0.585 | 0.583 | 0.541 | 0.513 | 0.509 | 0.511 | 0.531 | 0.491 | 0.5 | 0.524
3 | HCC-15 | 0.717 | 0.639 | 0.775 | 0.666 | 0.771 | 0.805 | 0.795 | 0.887 | 0.897 | 0.955 | 0.806 | 0.461 | 0.572 | 0.328 | 0.223 | 0.915 | 0.867 | 0.74 | 0.706 | 0.824
4 | HCC-44 | 0.47 | 0.558 | 0.475 | 0.564 | 0.485 | 0.793 | 0.73 | 0.722 | 0.712 | 0.715 | 0.996 | 0.868 | 0.929 | 0.701 | 0.493 | 1.03 | 1.1 | 1.12 | 1.02 | 1.09
5 | HCC-78 | 0.199 | 0.183 | 0.206 | 0.178 | 0.171 | 0.335 | 0.26 | 0.326 | 0.337 | 0.372 | 0.827 | 0.533 | 0.988 | 0.299 | 0.469 | 0.431 | 0.381 | 0.424 | 0.427 | 0.46
6 | HCC-366 | 0.114 | 0.121 | 0.118 | 0.113 | 0.104 | 0.351 | 0.387 | 0.579 | 0.472 | 0.398 | 0.88 | 0.938 | 0.614 | 0.58 | 0.161 | 0.239 | 0.28 | 0.226 | 0.174 | 0.32
7 | HCC-827 | 1.07 | 0.996 | – | 0.772 | 1 | 0.835 | 0.916 | – | 0.96 | 0.978 | 0.191 | 0.164 | 0.178 | 0.208 | 0.228 | 0.721 | – | 0.703 | 0.714 | 0.87
8 | LCLC-103H | 0.721 | 0.672 | 0.553 | 0.53 | 0.584 | 1.11 | 1.13 | 1.05 | 1.13 | 1.07 | – | – | – | – | – | 0.819 | 0.749 | 0.853 | 0.766 | 0.755
9 | NCI-H441 | 0.477 | 0.426 | 0.474 | 0.402 | 0.595 | 0.972 | 0.706 | 0.72 | 0.89 | 0.767 | – | – | – | – | – | 0.807 | 0.833 | 0.694 | 0.793 | 0.752
10 | NCI-H522 | – | – | – | – | – | – | – | – | – | – | – | – | – | – | – | 0.734 | 0.84 | 0.899 | 0.953 | 0.893
11 | NCI-H1299 | 0.567 | 0.811 | 0.8 | 0.824 | 0.894 | 0.937 | 0.945 | 0.911 | 1.07 | 0.901 | 1.01 | 0.994 | 0.901 | 0.87 | 0.555 | – | – | – | – | –
12 | NCI-H1395 | 0.605 | 0.581 | – | 0.602 | 0.577 | – | – | – | – | – | 1.05 | 0.869 | 0.834 | 0.907 | 0.406 | 0.679 | 0.564 | 0.662 | 0.604 | 0.725
13 | NCI-H1563 | 0.587 | 0.618 | 0.641 | 0.747 | 0.682 | 0.871 | 0.897 | 0.736 | 0.893 | 0.971 | 0.973 | 0.937 | 0.808 | 0.84 | 0.61 | – | – | – | – | –
14 | NCI-H1648 | – | – | – | – | – | – | – | – | – | – | – | – | – | – | – | 0.557 | 0.425 | 0.327 | 0.64 | 0.391
15 | NCI-H1703 | 0.232 | 0.245 | 0.257 | 0.283 | 0.23 | 0.724 | 0.783 | 0.556 | 0.699 | 0.604 | – | 1.09 | 0.887 | 0.96 | 0.859 | – | – | – | – | –
16 | NCI-H1792 | 0.247 | 0.223 | 0.214 | – | 0.275 | 0.759 | 0.999 | 0.87 | – | 0.898 | 0.976 | 0.79 | 0.682 | 0.535 | 0.417 | – | – | – | – | –
17 | NCI-H1793 | 0.258 | 0.314 | 0.257 | 0.282 | 0.304 | – | – | – | – | – | 0.478 | 0.531 | 0.397 | 0.395 | 0.352 | 0.774 | 0.522 | 0.681 | 0.704 | 0.733
18 | NCI-H2342 | – | – | – | – | – | – | – | – | – | – | – | – | – | – | – | 0.661 | 0.788 | 0.613 | 0.684 | 0.787
19 | SW 900 | – | – | – | – | – | – | – | – | – | – | – | – | – | – | – | 0.588 | – | 0.352 | 0.463 | –
